Among the data in ChEMBL document CHEMBL1201862, “PubChem BioAssay data set” (2004) are AC50, CC50 and IC50 values, retold here.

The source made the active and inactive calls. Unless noted, no cut-off for these calls is given here.

In assay [1] the target is Protein disulfide-isomerase (Homo sapiens, UniProt P07237). The experiment in a line: inhibition of PDI-mediated insulin reduction – biochemical, turbidity, dry powder samples, set 2, confirmation (AID 652146).
Assay [2] in a line: disruptors of Keap1/Nrf2 protein interaction – biochemical, fluorescence polarization, dry powder, set 3, dose response (AID 651806). A general note: In fluorescence polarisation assays a small probe gives low polarisation when free and higher when bound to something large.
In assay [3] the target is Keap1/Nrf2 (Homo sapiens, UniProt Q14145). The experiment in a line: disruptors of Keap1 binding to Nrf2 peptide – biochemical, fluorescence polarization, cherry-picked samples, dose response (AID 588683).
Assay [4] is described as follows: viability of BHK-21 cells – cell-based, secondary screen, cytotoxicity control for flavivirus guanylyltransferase probe project (AID 624078). In kind it is functional.
The target in assay [5] is T1, Fatty acid synthase (Homo sapiens, UniProt P49327). As to the kind of experiment: inhibition of human FAS-TE enzyme activity – biochemical, endpoint fluorescence intensity, powder samples, SAR follow-up (AID 652164). In kind it is functional.
T1 sequence (P49327 whole entry): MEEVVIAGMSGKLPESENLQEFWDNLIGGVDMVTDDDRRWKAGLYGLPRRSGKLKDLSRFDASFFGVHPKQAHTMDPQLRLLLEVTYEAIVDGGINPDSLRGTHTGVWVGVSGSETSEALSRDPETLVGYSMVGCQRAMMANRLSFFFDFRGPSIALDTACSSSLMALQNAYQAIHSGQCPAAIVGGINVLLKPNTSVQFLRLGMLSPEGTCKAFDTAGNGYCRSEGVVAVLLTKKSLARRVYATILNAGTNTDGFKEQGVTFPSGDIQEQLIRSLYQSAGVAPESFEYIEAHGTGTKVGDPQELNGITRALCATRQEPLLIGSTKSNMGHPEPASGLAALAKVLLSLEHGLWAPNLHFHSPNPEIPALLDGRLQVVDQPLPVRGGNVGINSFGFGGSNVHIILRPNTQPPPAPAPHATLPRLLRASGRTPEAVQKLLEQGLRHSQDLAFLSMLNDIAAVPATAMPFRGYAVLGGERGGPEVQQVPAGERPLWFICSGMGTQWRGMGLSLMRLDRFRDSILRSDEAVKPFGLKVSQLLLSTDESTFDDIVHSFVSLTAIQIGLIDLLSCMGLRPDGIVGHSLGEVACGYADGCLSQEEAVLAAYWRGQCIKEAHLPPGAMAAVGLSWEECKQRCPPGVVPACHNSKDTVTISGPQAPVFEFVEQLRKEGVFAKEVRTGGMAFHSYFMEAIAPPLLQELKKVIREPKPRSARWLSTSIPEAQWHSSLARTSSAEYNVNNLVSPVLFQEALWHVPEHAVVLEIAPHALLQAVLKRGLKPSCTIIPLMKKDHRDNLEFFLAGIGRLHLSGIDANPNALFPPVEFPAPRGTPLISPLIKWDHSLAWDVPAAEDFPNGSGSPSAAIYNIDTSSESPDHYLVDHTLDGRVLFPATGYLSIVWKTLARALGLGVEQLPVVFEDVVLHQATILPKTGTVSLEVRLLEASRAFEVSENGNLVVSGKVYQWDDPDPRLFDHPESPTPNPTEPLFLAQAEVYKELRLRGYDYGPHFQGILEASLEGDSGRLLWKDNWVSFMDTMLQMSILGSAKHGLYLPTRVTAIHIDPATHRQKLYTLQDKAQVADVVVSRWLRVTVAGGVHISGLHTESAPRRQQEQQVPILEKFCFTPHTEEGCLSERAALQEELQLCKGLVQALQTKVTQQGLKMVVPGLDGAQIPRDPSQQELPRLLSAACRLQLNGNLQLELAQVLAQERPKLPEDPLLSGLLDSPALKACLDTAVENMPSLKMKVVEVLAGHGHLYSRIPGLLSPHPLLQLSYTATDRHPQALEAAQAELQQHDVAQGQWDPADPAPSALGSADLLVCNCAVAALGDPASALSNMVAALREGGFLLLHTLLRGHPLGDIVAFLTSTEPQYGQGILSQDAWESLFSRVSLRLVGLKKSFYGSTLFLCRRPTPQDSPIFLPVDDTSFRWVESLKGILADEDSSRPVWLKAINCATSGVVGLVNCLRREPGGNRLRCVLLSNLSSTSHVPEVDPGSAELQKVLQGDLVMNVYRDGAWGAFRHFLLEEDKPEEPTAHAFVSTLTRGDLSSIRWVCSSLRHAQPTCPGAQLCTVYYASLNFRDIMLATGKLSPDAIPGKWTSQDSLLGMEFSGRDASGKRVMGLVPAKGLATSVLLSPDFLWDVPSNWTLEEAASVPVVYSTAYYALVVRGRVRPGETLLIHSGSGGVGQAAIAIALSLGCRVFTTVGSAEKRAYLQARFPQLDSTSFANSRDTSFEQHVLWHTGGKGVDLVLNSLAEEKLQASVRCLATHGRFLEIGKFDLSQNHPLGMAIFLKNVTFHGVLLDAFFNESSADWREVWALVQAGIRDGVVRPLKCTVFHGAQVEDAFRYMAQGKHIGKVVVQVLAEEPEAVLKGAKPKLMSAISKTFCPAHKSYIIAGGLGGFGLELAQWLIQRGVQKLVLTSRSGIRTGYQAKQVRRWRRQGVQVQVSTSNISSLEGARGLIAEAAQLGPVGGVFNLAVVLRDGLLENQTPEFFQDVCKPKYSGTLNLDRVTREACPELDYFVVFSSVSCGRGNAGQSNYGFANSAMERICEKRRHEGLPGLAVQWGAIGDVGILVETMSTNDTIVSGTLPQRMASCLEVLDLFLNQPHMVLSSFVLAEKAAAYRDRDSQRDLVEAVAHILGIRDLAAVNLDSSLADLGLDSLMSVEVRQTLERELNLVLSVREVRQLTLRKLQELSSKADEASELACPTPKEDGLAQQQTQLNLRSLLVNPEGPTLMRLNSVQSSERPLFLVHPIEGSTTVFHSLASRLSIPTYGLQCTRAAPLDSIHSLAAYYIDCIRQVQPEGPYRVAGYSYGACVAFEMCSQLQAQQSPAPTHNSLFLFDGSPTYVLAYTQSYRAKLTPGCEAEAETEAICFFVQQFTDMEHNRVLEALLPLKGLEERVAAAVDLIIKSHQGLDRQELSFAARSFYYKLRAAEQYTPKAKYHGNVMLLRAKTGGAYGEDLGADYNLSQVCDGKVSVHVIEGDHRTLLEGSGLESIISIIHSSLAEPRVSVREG
The target of assay [6] is T1, Fatty acid synthase. The experiment in a line: inhibition of human FAS-TE enzyme activity – biochemical, endpoint fluorescence intensity, uHTS hits, dose response (AID 624327).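 Note: fluorescence from hydrolysis of an O-methyl fluorescein acyl ester substrate by the enzyme.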 In kind it is functional.
For assay [7], the target named is T1, Fatty acid synthase. As to the kind of experiment: inhibition of human FAS-TE enzyme activity – biochemical, kinetic fluorescence intensity, dose response (AID 624326).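 Note: rate of fluorescence rise from hydrolysis of a fluorogenic O-methyl fluorescein ester substrate.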 The class given is functional.
Assay [8] has as its target Protein Wnt-3a (Mus musculus, UniProt P27467). As to the kind of experiment: SAR analysis of small molecule antagonists of Gli-SUFU in a Wnt3a luminescent reporter assay. The class given is functional. For orientation: Reporter assays use an easily measured gene product as a stand-in for the process of interest.
Assay [9] in a line: kidney cell line viability loss – HEK293T, luminescence plate reader, powder samples, set 4, cytotoxicity control, dose response (AID 651863). The class given is functional, cell-based. The note with it: HEK293.
For assay [10], the target named is 1-phosphatidylinositol 4,5-bisphosphate phosphodiesterase gamma-1 (Homo sapiens, UniProt P19174). The experiment in a line: Counterscreen for inhibitors of phospholipase C isozymes (PLC-B3): Fluorescence-based biochemical high throughput dose response assay to identify inhibitors of phospholipase C isozymes (PLC-gamma1).
The target of assay [11] is 1-phosphatidylinositol 4,5-bisphosphate phosphodiesterase beta-3 (Homo sapiens, UniProt Q01970). As to the kind of experiment: Fluorescence-based biochemical high throughput dose response assay to identify inhibitors of phospholipase C isozymes (PLC-B3).
Sequence of 1-phosphatidylinositol 4,5-bisphosphate phosphodiesterase beta-3 (Q01970 whole entry): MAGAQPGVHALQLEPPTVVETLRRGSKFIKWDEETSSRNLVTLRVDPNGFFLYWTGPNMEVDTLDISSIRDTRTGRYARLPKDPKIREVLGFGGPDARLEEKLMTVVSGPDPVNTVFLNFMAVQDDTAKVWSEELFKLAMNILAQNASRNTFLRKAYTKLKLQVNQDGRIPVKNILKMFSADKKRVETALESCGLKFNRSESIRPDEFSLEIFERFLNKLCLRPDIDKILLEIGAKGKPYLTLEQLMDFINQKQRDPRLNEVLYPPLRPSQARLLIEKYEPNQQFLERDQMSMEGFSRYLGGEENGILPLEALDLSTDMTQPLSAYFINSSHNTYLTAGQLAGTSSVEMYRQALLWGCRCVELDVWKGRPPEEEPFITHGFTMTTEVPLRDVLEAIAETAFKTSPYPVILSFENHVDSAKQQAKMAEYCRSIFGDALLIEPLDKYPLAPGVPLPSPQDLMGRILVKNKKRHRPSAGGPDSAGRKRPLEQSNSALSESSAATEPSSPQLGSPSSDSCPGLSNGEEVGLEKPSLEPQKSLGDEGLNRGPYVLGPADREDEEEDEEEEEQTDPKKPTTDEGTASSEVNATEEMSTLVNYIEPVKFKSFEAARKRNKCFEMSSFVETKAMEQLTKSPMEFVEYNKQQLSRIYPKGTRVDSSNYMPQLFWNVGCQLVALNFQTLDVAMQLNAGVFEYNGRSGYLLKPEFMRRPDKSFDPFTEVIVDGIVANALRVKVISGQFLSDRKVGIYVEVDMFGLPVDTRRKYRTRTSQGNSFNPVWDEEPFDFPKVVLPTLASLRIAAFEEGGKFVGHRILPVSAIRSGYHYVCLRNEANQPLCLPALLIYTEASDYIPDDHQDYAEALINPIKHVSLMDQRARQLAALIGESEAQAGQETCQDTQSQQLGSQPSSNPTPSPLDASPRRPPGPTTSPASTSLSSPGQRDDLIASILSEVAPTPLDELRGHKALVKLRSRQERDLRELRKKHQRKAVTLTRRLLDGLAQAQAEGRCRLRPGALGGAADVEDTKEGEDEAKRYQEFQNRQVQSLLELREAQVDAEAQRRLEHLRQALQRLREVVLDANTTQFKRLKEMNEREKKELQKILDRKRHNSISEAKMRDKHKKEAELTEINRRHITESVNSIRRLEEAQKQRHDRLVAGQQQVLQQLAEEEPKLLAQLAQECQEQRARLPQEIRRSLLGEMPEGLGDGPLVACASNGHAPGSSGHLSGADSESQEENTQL
Assay [12] is described as follows: T. cruzi growth inhibition in host cells, dose response, cell-based, plate reader, dry powder, set 2 (AID 652275). The class given is functional.

Sequence of Protein disulfide-isomerase (P07237 whole entry): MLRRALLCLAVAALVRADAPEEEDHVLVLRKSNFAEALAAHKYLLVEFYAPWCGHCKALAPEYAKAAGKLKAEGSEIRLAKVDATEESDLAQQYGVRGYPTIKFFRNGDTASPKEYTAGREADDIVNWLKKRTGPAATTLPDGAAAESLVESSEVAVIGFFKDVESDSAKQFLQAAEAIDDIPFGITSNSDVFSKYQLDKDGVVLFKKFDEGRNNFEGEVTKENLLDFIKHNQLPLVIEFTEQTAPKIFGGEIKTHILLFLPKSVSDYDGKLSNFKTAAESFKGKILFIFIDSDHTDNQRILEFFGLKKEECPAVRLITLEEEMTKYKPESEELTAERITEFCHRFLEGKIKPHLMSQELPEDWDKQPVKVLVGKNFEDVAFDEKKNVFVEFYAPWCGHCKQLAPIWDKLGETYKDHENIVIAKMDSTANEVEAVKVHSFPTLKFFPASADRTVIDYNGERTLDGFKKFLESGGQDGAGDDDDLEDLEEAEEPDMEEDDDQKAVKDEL
Sequence of Protein Wnt-3a (P27467 whole entry): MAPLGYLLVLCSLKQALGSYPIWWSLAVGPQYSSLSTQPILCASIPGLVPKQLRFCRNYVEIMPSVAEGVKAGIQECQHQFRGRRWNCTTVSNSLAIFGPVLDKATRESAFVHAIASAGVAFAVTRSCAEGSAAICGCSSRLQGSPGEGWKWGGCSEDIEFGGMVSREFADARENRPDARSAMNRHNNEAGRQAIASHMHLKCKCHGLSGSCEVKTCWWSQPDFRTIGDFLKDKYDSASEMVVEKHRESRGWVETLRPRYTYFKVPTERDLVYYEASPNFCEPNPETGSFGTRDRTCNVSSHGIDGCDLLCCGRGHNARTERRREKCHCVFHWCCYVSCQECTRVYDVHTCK

On to `CCNC(=O)C1(CCOc2ccccc2)CCN(Cc2ccc(O)c(Cl)c2)CC1`, for which the AC50 in assay [1] is > 30 µM (inactive).

In the case of `Cc1ccc(S(=O)(=O)Nc2cc(C(C(=O)OC(C)C)C(=O)C(F)(F)F)c(O)c3ccccc23)c(C)c1` (configuration not stated), the AC50 in assay [2] is 74.9 µM (active); in assay [3], 2.67 µM (active).

As for `Cc1cc(F)ccc1S(=O)(=O)Nc1cc(SCC(=O)O)c(O)c2ccccc12`, the CC50 in [4] is 10.7 µM (active).

Regarding `CC(C)C(=O)Nc1nc(-c2ccc(S(=O)(=O)N3CCOCC3)cc2)cs1`, the IC50 in assay [5] is 0.874 µM (active); in assay [6], 0.614 µM (active); in assay [7], 0.53 µM (active).

With `N#Cc1cccc(C(=O)Nc2cc(N3CCCCC3)ncn2)c1`, the IC50 in [8] was > 21.8 µM (inactive).

Take `CC(=O)Nc1cc(NS(=O)(=O)c2c(C)cc(C)cc2C)c2ccccc2c1O`: the AC50 in assay [9] is 32.3 µM (active).

For `CCCCN=C(S)NNC(=O)c1csc(CC)c1`, the IC50 in [10] and in assay [11] was > 122 µM (inactive) in each case.

Consider `CC(C)N1C[C@H](C)[C@@H](CN(C)Cc2ccc(F)cc2)Oc2c(C(=O)Nc3ccncc3)cccc2C1=O`, for which the AC50 in [12] was 0.313 µM (active).

Usually AC50 stands for the concentration at which the activity in the assay is half-maximal. The CC50 is the concentration at which the toxic effect on the cells reaches its halfway point. The IC50 is the concentration needed to halve the response being measured.
